# Results taken from patent US20170202932A1, “METHODS FOR INHIBITING NEURON APOPTOSIS AND NECROSIS” (NEWSOUTH INNOVATIONS PTY LIMITED, priority 2012, published 2017).
# Key:
# [1] = molecular target: T1, Purkinje cell TRPC3 channels (Mus musculus, UniProt Q9QZC1, DEL811-838); assay: Whole-cell voltage clamp of DHPG-evoked inward current in Purkinje cells of cerebellar brain slices; type: cell-based
# T1 construct: from tissue; host or cells: parasagittal cerebellar brain slices, C129-SvEv mice, Purkinje neurons
# T1 sequence (Q9QZC1 with tags, fused parts or gaps DEL811-838): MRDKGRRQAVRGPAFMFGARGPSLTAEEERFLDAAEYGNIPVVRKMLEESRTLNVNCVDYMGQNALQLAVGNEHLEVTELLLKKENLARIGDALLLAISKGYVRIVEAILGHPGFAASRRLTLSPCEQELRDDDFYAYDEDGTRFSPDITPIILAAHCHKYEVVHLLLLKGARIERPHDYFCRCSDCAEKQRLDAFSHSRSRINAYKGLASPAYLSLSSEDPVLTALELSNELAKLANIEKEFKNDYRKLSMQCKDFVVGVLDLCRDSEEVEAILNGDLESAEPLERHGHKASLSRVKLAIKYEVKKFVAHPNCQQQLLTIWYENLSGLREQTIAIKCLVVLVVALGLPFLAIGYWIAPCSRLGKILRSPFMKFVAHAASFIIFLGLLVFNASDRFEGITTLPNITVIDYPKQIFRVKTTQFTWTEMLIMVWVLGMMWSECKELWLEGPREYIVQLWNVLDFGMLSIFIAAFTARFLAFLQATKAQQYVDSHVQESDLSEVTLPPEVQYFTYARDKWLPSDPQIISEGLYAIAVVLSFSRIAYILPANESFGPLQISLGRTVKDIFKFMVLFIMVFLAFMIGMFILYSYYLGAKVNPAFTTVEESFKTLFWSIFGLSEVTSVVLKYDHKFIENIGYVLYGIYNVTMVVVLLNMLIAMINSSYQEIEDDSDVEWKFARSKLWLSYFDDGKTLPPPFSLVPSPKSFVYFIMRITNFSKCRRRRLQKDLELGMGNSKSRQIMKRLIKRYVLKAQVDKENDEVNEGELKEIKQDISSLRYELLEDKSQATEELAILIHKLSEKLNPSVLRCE
# Experimental: TRPC3c-mediated current in cerebellar Purkinje cells was then assessed. Parasagittal cerebellar brain slices (400 μm) were prepared using standard techniques (Power and Sah, (2007) J. Physiol. 580:835-57). Mice (C129-SvEv strain, 4-8 weeks old) were anaesthetized with pentobarbital and decapitated. The brain was removed and submerged in an ice cold modified artificial cerebral spinal fluid (ACSF) solution containing 119 mM NaCl, 2.5 mM KCl, 3.3 mM MgCl2, 0.5 mM CaCl2, 1.0 mM Na2PO4, 26.2 mM NaHCO3, 11 mM glucose, equilibrated with 95% CO2, 5% 02. Slices were cut with a VT1200 vibratome (Leica, Germany) and were allowed to recover for at least 1 h at room temperature in a standard ACSF solution containing 119 mM NaCl, 2.5 mM KCl, 1.3 mM MgCl2, 2.5 mM CaCl2, 1.0 mM Na2PO4, 26.2 mM NaHCO3, 11 mM glucose, equilibrated with 95% CO2, 5% O2.
# For recording, slices were transferred to the stage of a Zeiss Examiner D1 microscope and continuously perfused with ACSF heated to 30° C. Whole-cell patch-clamp recordings were made from the soma of Purkinje neurons identified using infrared differential interference contrast videomicroscopy. Patch pipettes (3-5 MΩ) were filled with an internal solution containing 135 mM Cesium methanesulfonate, 8 mM NaCl, 10 mM HEPES, 2 mM Mg2ATP, 0.3 mM Na3GTP, 0.1 spermine (pH 7.3 with KOH, osmolarity 290-300 mosmol l^−1). Alexa 594 (30 μM; Invitrogen, U.S.A.) was added to the internal solution to visualise the dendritic tree. Whole-cell currents at a holding potential of −70 mV were amplified with an Axopatch 2B amplifier (Molecular Devices, U.S.A.), filtered at 5 kHz and digitized at 20 kHz with a Digidata1440 (Molecular Devices), and controlled using pClamp 10.2 Software (Molecular Devices). Whole-field fluorescence measurements were made with a 40× water immersion objective (NA 1.0; Zeiss, Germany) using a F43 filter block; excitation 545/25 nm; dichroic 570 nm, emission 605/70 nm. Images were acquired with a cooled CCD camera (ProgRes MF-Cool, Jenoptik, Germany) DHPG (50 μM) was applied onto the dendritic field by focal pressure application (in ACSF) through a patch pipette.
# [2] = molecular target: T2, recombinant mouse TRPC3c channels (Mus musculus, UniProt Q9QZC1, DEL811-838); assay: Whole-cell patch clamp of CCh-activated current, HEK293 cells expressing TRPC3c; type: cell-based; conditions: TRPC3c+CCh (100 μM)+genistein 200 μM pre-incubation; Vh=−50 mV; n=7; CCh alone −809.4±36.9 pA
# T2 construct: expressed in transfected cells; host or cells: HEK293 cells, stably transfected (pIRES-DsRed2 vector)
# T2 sequence (Q9QZC1 with tags, fused parts or gaps DEL811-838): T1 sequence (Q9QZC1 with tags, fused parts or gaps DEL811-838)
# Experimental: For whole cell patch clamp recordings, HEK293 cells stably expressing recombinant TRPC3 ion channels were grown to 85-95% confluence on a coverslip coated with poly-D-lysine and collagen (both from Sigma-Aldrich, U.S.A.). Recording pipettes were made from borosilicate glass (GC120TF-10, Harvard Apparatus, U.K.). The pipette resistance was at 3-6 MΩ (PC-10, Narishige, Japan). The internal solution had the composition: 130 mM CsCl, 2 mM MgCl2, 10 mM EGTA, 0.3 mM ATP, 0.03 mM GTP, pH at 7.3 adjusted with CsOH. Cells on the coverslip were placed in a microchamber on an inverted microscope (Leica DMIL, Germany) and superfused with HEPES-buffered physiological salt solution (HPSS) containing 120 mM NaCl, 5.4 mM KCl, 2 mM CaCl2, 1.13 mM MgCl2, 10 mM glucose, 20 mM HEPES (pH 7.4) at room temperature.
# Whole cell patch clamp recordings were made following a gigaseal, using an Axopatch 200 patch clamp amplifier (Molecular Devices, U.S.A.) controlled by software (pClamp 10.2, Molecular Devices, U.S.A.). Cell capacitance was cancelled and series resistance was compensated by ˜90%. […] Carbachol (used to activate TRPC3 channels via the endogenously expressed M3 AChR) was purchased from Sigma-Aldrich (U.S.A.). DHPG (—(S)-2-amino-2-(3,5-dihydroxyphenyl)acetic acid), a group I mGluR agonist (Schoepp et al. 1994), was purchased from Tocris Bioscience (U.K.). […]
smiles,measurement,setting,value
"O=c1c(-c2ccc(O)cc2)coc2cc(O)cc(O)c12 [genistein, 4′, 5,7-trihydroxyisoflavone]",peak of the DHPG-evoked current,"[1]; 15 min after genistein 100 μM, before genistein −400±55 pA",−77±50 pA
same,integrated area of the DHPG-evoked current (net charge),"[1]; after genistein 100 μM, before genistein −878±11 pC",−74±105 pC
same,time over which block of the current was produced,[1]; genistein 100 μM bath application,10 to 15 min
same,reduction of DHPG-evoked Purkinje cell inward current,"[1]; genistein 100 μM, DHPG 50 μM, holding −70 mV, n=3",90±12%
same,mean peak CCh-activated whole-cell inward current,[2],−35.4±8.1 pA
